What was measured:
Assay in all cases: cells
NCI-H2126 = assay type: functional, cell-based, Homo sapiens; conditions: Homo sapiens, NCI-H2126
Description: SANGER: Inhibition of human NCI-H2126 cell growth in a cell viability assay.

SK-PN-DW = assay type: functional, cell-based, Homo sapiens; conditions: Homo sapiens, SK-PN-DW
Description: SANGER: Inhibition of human SK-PN-DW cell growth in a cell viability assay.

CTB-1 = assay type: functional, cell-based, Homo sapiens; conditions: Homo sapiens, CTB-1
Description: SANGER: Inhibition of human CTB-1 cell growth in a cell viability assay.

no-10 = assay type: functional, cell-based, Homo sapiens; conditions: Homo sapiens
Description: SANGER: Inhibition of human no-10 cell growth in a cell viability assay.

NOMO-1 = assay type: functional, cell-based, Homo sapiens; conditions: Homo sapiens, NOMO-1
Description: SANGER: Inhibition of human NOMO-1 cell growth in a cell viability assay.

SK-N-FI = assay type: functional, cell-based, Homo sapiens; conditions: Homo sapiens, SK-N-FI
Description: SANGER: Inhibition of human SK-N-FI cell growth in a cell viability assay.

DMS-114 = assay type: functional, cell-based, Homo sapiens; conditions: Homo sapiens, DMS-114
HOP-62 = assay type: functional, cell-based, Homo sapiens; conditions: Homo sapiens, HOP-62
Description: SANGER: Inhibition of human HOP-62 cell growth in a cell viability assay.

P30-OHK = assay type: functional, cell-based, Homo sapiens; conditions: Homo sapiens, P30-OHK
Description: SANGER: Inhibition of human P30-OHK cell growth in a cell viability assay.

COLO-824 = assay type: functional, cell-based, Homo sapiens; conditions: Homo sapiens, COLO-824
Description: SANGER: Inhibition of human COLO-824 cell growth in a cell viability assay.

TE-5 = assay type: functional, cell-based, Homo sapiens; conditions: Homo sapiens, TE-5
Description: SANGER: Inhibition of human TE-5 cell growth in a cell viability assay.

NCI-N87 = assay type: functional, cell-based, Homo sapiens; conditions: Homo sapiens, NCI-N87
Description: SANGER: Inhibition of human NCI-N87 cell growth in a cell viability assay.

NCI-H1395 = assay type: functional, cell-based, Homo sapiens; conditions: Homo sapiens, NCI-H1395
Description: SANGER: Inhibition of human NCI-H1395 cell growth in a cell viability assay.

KARPAS-45 = assay type: functional, cell-based, Homo sapiens; conditions: Homo sapiens, KARPAS-45
Description: SANGER: Inhibition of human KARPAS-45 cell growth in a cell viability assay.

KMOE-2 = assay type: functional, cell-based, Homo sapiens; conditions: Homo sapiens, KMOE-2
Description: SANGER: Inhibition of human KMOE-2 cell growth in a cell viability assay.

MHH-NB-11 = assay type: functional, cell-based, Homo sapiens; conditions: Homo sapiens, MHH-NB-11
Description: SANGER: Inhibition of human MHH-NB-11 cell growth in a cell viability assay.

RS4-11 = assay type: functional, cell-based, Homo sapiens; conditions: Homo sapiens, RS4-11
Description: SANGER: Inhibition of human RS4-11 cell growth in a cell viability assay.

MN-60 = assay type: functional, cell-based, Homo sapiens; conditions: Homo sapiens, MN-60
Description: SANGER: Inhibition of human MN-60 cell growth in a cell viability assay.

KARPAS-299 = assay type: functional, cell-based, Homo sapiens; conditions: Homo sapiens, KARPAS-299
Description: SANGER: Inhibition of human KARPAS-299 cell growth in a cell viability assay.

QIMR-WIL = assay type: functional, cell-based, Homo sapiens; conditions: Homo sapiens, QIMR-WIL
Description: SANGER: Inhibition of human QIMR-WIL cell growth in a cell viability assay.

LAMA-84 = assay type: functional, cell-based, Homo sapiens; conditions: Homo sapiens, LAMA-84
Description: SANGER: Inhibition of human LAMA-84 cell growth in a cell viability assay.

MFH-ino = assay type: functional, cell-based, Homo sapiens; conditions: Homo sapiens, MFH-ino
Description: SANGER: Inhibition of human MFH-ino cell growth in a cell viability assay.

BB49-HNC = assay type: functional, cell-based, Homo sapiens; conditions: Homo sapiens, BB49-HNC
Description: SANGER: Inhibition of human BB49-HNC cell growth in a cell viability assay.

C2BBe1 = assay type: functional, cell-based, Homo sapiens; conditions: Homo sapiens, C2BBe1
Description: SANGER: Inhibition of human C2BBe1 cell growth in a cell viability assay.

BE-13 = assay type: functional, cell-based, Homo sapiens; conditions: Homo sapiens, BE-13
Description: SANGER: Inhibition of human BE-13 cell growth in a cell viability assay.

SBC-1 = assay type: functional, cell-based, Homo sapiens; conditions: Homo sapiens, SBC-1
Description: SANGER: Inhibition of human SBC-1 cell growth in a cell viability assay.

U-87 MG = assay type: functional, cell-based, Homo sapiens, U-87MG ATCC; conditions: Homo sapiens, U-87 MG
Description: SANGER: Inhibition of human U-87-MG cell growth in a cell viability assay.

NH-12 = assay type: functional, cell-based, Homo sapiens; conditions: Homo sapiens, NH-12
Description: SANGER: Inhibition of human NH-12 cell growth in a cell viability assay.

NCI-H1355 = assay type: functional, cell-based, Homo sapiens; conditions: Homo sapiens, NCI-H1355
Description: SANGER: Inhibition of human NCI-H1355 cell growth in a cell viability assay.

SK-MEL-1 = assay type: functional, cell-based, Homo sapiens; conditions: Homo sapiens, SK-MEL-1
Description: SANGER: Inhibition of human SK-MEL-1 cell growth in a cell viability assay.

OS-RC-2 = assay type: functional, cell-based, Homo sapiens; conditions: Homo sapiens, OS-RC-2
Description: SANGER: Inhibition of human OS-RC-2 cell growth in a cell viability assay.

MEG-01 = assay type: functional, cell-based, Homo sapiens; conditions: Homo sapiens, MEG-01
Description: SANGER: Inhibition of human MEG-01 cell growth in a cell viability assay.

IST-MES1 = assay type: functional, cell-based, Homo sapiens; conditions: Homo sapiens, IST-MES1
Description: SANGER: Inhibition of human IST-MES1 cell growth in a cell viability assay.

TE-12 = assay type: functional, cell-based, Homo sapiens; conditions: Homo sapiens, TE-12
Description: SANGER: Inhibition of human TE-12 cell growth in a cell viability assay.

MZ1-PC = assay type: functional, cell-based, Homo sapiens; conditions: Homo sapiens, MZ1-PC
Description: SANGER: Inhibition of human MZ1-PC cell growth in a cell viability assay.

BB65-RCC = assay type: functional, cell-based, Homo sapiens; conditions: Homo sapiens, BB65-RCC
Description: SANGER: Inhibition of human BB65-RCC cell growth in a cell viability assay.

MPP-89 = assay type: functional, cell-based, Homo sapiens; conditions: Homo sapiens, MPP-89
Description: SANGER: Inhibition of human MPP-89 cell growth in a cell viability assay.

VA-ES-BJ = assay type: functional, cell-based, Homo sapiens; conditions: Homo sapiens, VA-ES-BJ
Description: SANGER: Inhibition of human VA-ES-BJ cell growth in a cell viability assay.

NCI-H747 = assay type: functional, cell-based, Homo sapiens; conditions: Homo sapiens, NCI-H747
Description: SANGER: Inhibition of human NCI-H747 cell growth in a cell viability assay.

EW-24 = assay type: functional, cell-based, Homo sapiens; conditions: Homo sapiens, EW-24
Description: SANGER: Inhibition of human EW-24 cell growth in a cell viability assay.

8-MG-BA = assay type: functional, cell-based, Homo sapiens; conditions: Homo sapiens, 8-MG-BA
Description: SANGER: Inhibition of human 8-MG-BA cell growth in a cell viability assay.

COR-L88 = assay type: functional, cell-based, Homo sapiens; conditions: Homo sapiens, COR-L88
Description: SANGER: Inhibition of human COR-L88 cell growth in a cell viability assay.

D-392MG = assay type: functional, cell-based, Homo sapiens; conditions: Homo sapiens, D-392MG
MSTO-211H = assay type: functional, cell-based, Homo sapiens; conditions: Homo sapiens, MSTO-211H
Description: SANGER: Inhibition of human MSTO-211H cell growth in a cell viability assay.

EW-11 = assay type: functional, cell-based, Homo sapiens; conditions: Homo sapiens, EW-11
Description: SANGER: Inhibition of human EW-11 cell growth in a cell viability assay.

A704 = assay type: functional, cell-based, Homo sapiens; conditions: Homo sapiens, A704
Description: SANGER: Inhibition of human A704 cell growth in a cell viability assay.

BT-474 = assay type: functional, cell-based, Homo sapiens; conditions: Homo sapiens, BT-474
Description: SANGER: Inhibition of human BT-474 cell growth in a cell viability assay.

## Nc1cccc2c1CN(C1CCC(=O)NC1=O)C2=O (stereo not drawn) [LENALIDOMIDE]
NCI-H2126
  IC50: > 5 µM
SK-PN-DW
  IC50: > 5 µM
CTB-1
  IC50: > 5 µM
no-10
  IC50: > 5 µM
NOMO-1
  IC50: > 5 µM
SK-N-FI
  IC50: > 5 µM
DMS-114
  IC50: > 5 µM
HOP-62
  IC50: > 5 µM
P30-OHK
  IC50: > 5 µM
COLO-824
  IC50: > 5 µM
TE-5
  IC50: > 5 µM
NCI-N87
  IC50: > 5 µM
NCI-H1395
  IC50: > 5 µM
KARPAS-45
  IC50: > 5 µM
KMOE-2
  IC50: > 5 µM
MHH-NB-11
  IC50: > 5 µM
RS4-11
  IC50: > 5 µM
MN-60
  IC50: > 5 µM
KARPAS-299
  IC50: > 5 µM
QIMR-WIL
  IC50: > 5 µM
LAMA-84
  IC50: > 5 µM
MFH-ino
  IC50: > 5 µM
BB49-HNC
  IC50: > 5 µM
C2BBe1
  IC50: > 5 µM
BE-13
  IC50: > 5 µM
SBC-1
  IC50: > 5 µM
U-87 MG
  IC50: > 5 µM
NH-12
  IC50: > 5 µM
NCI-H1355
  IC50: > 5 µM
SK-MEL-1
  IC50: > 5 µM
OS-RC-2
  IC50: > 5 µM
MEG-01
  IC50: > 5 µM
IST-MES1
  IC50: > 5 µM
TE-12
  IC50: > 5 µM
MZ1-PC
  IC50: > 5 µM
BB65-RCC
  IC50: > 5 µM
MPP-89
  IC50: > 5 µM
VA-ES-BJ
  IC50: > 5 µM
NCI-H747
  IC50: > 5 µM
EW-24
  IC50: > 5 µM
8-MG-BA
  IC50: > 5 µM
COR-L88
  IC50: > 5 µM
D-392MG
  IC50: > 5 µM
MSTO-211H
  IC50: > 5 µM
EW-11
  IC50: > 5 µM
A704
  IC50: > 5 µM
BT-474
  IC50: > 5 µM

## CS(=O)(=O)c1ccc(C(=O)Nc2ccc(Cl)c(-c3ccccn3)c2)c(Cl)c1 [VISMODEGIB]
NCI-H2126
  IC50: > 10 µM
SK-PN-DW
  IC50: > 10 µM
CTB-1
  IC50: > 10 µM
no-10
  IC50: > 10 µM
NOMO-1
  IC50: > 10 µM
SK-N-FI
  IC50: > 10 µM
DMS-114
  IC50: > 10 µM
HOP-62
  IC50: > 10 µM
P30-OHK
  IC50: > 10 µM
COLO-824
  IC50: > 10 µM
TE-5
  IC50: > 10 µM
NCI-N87
  IC50: > 10 µM
NCI-H1395
  IC50: > 10 µM
KARPAS-45
  IC50: > 10 µM
KMOE-2
  IC50: > 10 µM
MHH-NB-11
  IC50: > 10 µM
RS4-11
  IC50: > 10 µM
MN-60
  IC50: > 10 µM
KARPAS-299
  IC50: > 10 µM
QIMR-WIL
  IC50: > 10 µM
LAMA-84
  IC50: > 10 µM
MFH-ino
  IC50: > 10 µM
BB49-HNC
  IC50: > 10 µM
C2BBe1
  IC50: > 10 µM
BE-13
  IC50: > 10 µM
SBC-1
  IC50: > 10 µM
U-87 MG
  IC50: > 10 µM
NH-12
  IC50: > 10 µM
NCI-H1355
  IC50: > 10 µM
SK-MEL-1
  IC50: > 10 µM
OS-RC-2
  IC50: > 10 µM
MEG-01
  IC50: > 10 µM
IST-MES1
  IC50: > 10 µM
TE-12
  IC50: > 10 µM
MZ1-PC
  IC50: > 10 µM
BB65-RCC
  IC50: > 10 µM
MPP-89
  IC50: > 10 µM
VA-ES-BJ
  IC50: > 10 µM
NCI-H747
  IC50: > 10 µM
EW-24
  IC50: > 10 µM
8-MG-BA
  IC50: > 10 µM
D-392MG
  IC50: > 10 µM
MSTO-211H
  IC50: > 10 µM
EW-11
  IC50: > 10 µM
A704
  IC50: > 10 µM
BT-474
  IC50: > 10 µM
